Assay results taken from US20020103111A1, “Inhibitors of MAdCAM-1-mediated interactions and methods of use therefor” (Millennium Pharmaceuticals, Inc., priority 1996, published 2002).
Like-named read-outs stand apart in the source and are kept apart here. Bridge positions count the residues as written; N and C are the ends. Square brackets hold non-standard residues; d marks the D form. Ends that are not written are not given here. Peptide text beside a SMILES is read from it. * marks the point of attachment. Butanoyl(4-pyren-1-yl) = O=C(CCCc1ccc2ccc3cccc4ccc1c2c34)*; Cyclopentanecarbonyl = O=C(C1CCCC1)*; NMeL = CN[C@@H](CC(C)C)C(=O)O

Target: T1, murine MAdCAM-1 (MAdCAM-1/mCk fusion protein); α4β7-bearing HUT 78 cells (Homo sapiens, UniProt P13612+P26010)
T1 construct: host or cells: HUT 78 cells (endogenous α4β7); The MAdCAM-1/mCk partner was made in house in baculovirus-infected Sf9 insect cells, used as neat supernatant and captured by rat anti-mCk antibody
Test: Adhesion of HUT 78 cells to MAdCAM-1/mCk fusion protein bound via capture antibody
Type: cell-based
Conditions: for % Adhesion Inhibition 500 μM: 500 μM compound; for IC50: HUT 78 cell adhesion to MAdCAM-1/mCk, average of two determinations
Procedure: The compounds of the present invention were evaluated for their biological properties.
A soluble fusion protein comprising murine MAdCAM-1 was produced in a baculovirus expression system and used in the adhesion assay. A fusion gene in which sequences encoding the signal peptide and extracellular domain of murine MAdCAM-1 were fused to sequences encoding a constant region of the murine kappa light chain (mCk) was constructed, and cloned into a baculovirus shuttle vector. Fusion protein produced from the resulting construct contained the integrin binding sequences of murine MAdCAM-1 at the amino-terminus, and the mCk sequence at the carboxy-terminus. Recombinant baculovirus encoding the fusion protein was harvested from infected Sf9 insect cells.
Human T-cell lymphoma cells (HUT 78 cells) activated with Mn^+2 were used for the adhesion assay in a 96-well format. HUT 78 cells were labelled by preincubation with ECECF-AM stain (Molecular Probes). Assays were conducted in a final volume of 200 μl. The adhesion of HUT 78 cells to MAdCAM-1/mCk fusion protein bound to wells via rat anti-mCk capture antibody was assessed in the presence or absence of each compound. […] Percent inhibition and IC50 values were determined.
HUT 78 cells (a human T cell lymphoma line; American Type Culture Collection, Accession No. ATCC TIB 161) were maintained in culture for up to one month in RPMI 1640 supplemented with 10% FCS, 20 mM HEPES, and Pen-Strep (1:100). Just prior to use in adhesion assays, cells were labeled with BCECF-AM as follows: 1×10^7 cells were pelleted at 1000 rpm for 10 minutes and resuspended in 25 mL cold PBS (Phosphate Buffered Saline). The cells were pelleted again, resuspended in cold PBS, and pelleted again. The cell pellet was resuspended in 25 ml PBS and labeled with 50 μl BCECF-AM (1 μg/μL in DMSO) for 30 minutes at 37° C. (BCECF-AM; 2′,7′-bis-(2-carboxyethyl)-5-(and-6)-carboxyflourescein, acetoxymethyl ester). The labeled cells were pelleted at 700 rpm for 10 minutes, resuspended in 25 ml cold Assay Buffer and pelleted.
The assay was performed in a 96-well format. Plates were coated overnight at 4° C. with 53 μl/well of a 5 μg/mL solution of rat anti-mCk in carbonate buffer. The plates were blocked for 1 hour at 37° C. with 100 μL/well of 1% BSA in PBS. The BSA/PBS solution was removed, and 50 μL of MAdCAM-mCk supernatant was added neat to each well. The assay was conducted under conditions in which capture antibody was the limiting reagent.
Cell adhesion was measured in the presence or absence of compounds. The compounds were resuspended in 100% DMSO, subsequently diluted 1:10 in water, and finally diluted again 1:10 in the assay: 50 μL of 2X Assay Bufler, 30 μL water, 20 μL of compound were added to each well. […] Cell adhesion occurred in 30 minutes at ambient temperature, after which plates were washed with 50 mM Tris/2 mM MnCl2, pH 7.2 using an EL 404 Microplate Autowasher (BIO-TEK Instruments) using the following wash parameters: wash volume=500 μL; two wash cycles; wash depth=80; aspirating after each wash.
Additional determinations were conducted as needed, so that each IC50 was determined over a range which encompassed the IC50. Over this range, Four different concentrations were tested in duplicate.
For each compound, a ratio was determined as follows: An average of the readings from duplicate wells was divided by an average of eight control wells (adhesion in the absence of any compound). […] In addition, the concentration (μM) of compound used was plotted against the resulting ratios.
The IC50 was then determined using Kaleidograph software (Abelbeck Software). The complete procedure was repeated again using duplicate wells for each point.

[1] = HuT78, read-out: % Adhesion Inhibition 500 μM
[2] = HuT78, 500 μM compound, HUT 78 cells, Mn2+ activated, read-out: % Adhesion Inhibition 500 μM
[3] = HuT78, read-out: % Adhesion Inhibition

## NH2-Trp-Arg-Gly-Leu-Asp-Thr-Ser-Leu-Gly-Ser (H-WRGLDTSLGS; not fully specified (C-terminus); printed as NH2-Trp-Arg-Gly-Leu-Asp-Thr-Ser-Leu-Gly-Ser) [Example 55]
HUT 78 cells, Mn2+ activated
  % Adhesion Inhibition 500 μM: 76%

## Ac-Leu-Asp-Thr-Ser-Leu (Ac-LDTSL; not fully specified (C-terminus); printed as Ac-Leu-Asp-Thr-Ser-Leu) [Example 58]
HUT 78 cells, Mn2+ activated
  % Adhesion Inhibition 500 μM: 71%

## CC(C)C[C@H](NC(=O)[C@H](CO)NC(=O)[C@@H](NC(=O)[C@H](CC(=O)O)NC(=O)[C@H](CC(C)C)NC(=O)Cc1ccccc1)[C@@H](C)O)C(N)=O [Example 26, Pha-Leu-Asp-Thr-Ser-Leu]
[1]
  inhibition at 500 µM: 38%
IC50 (μM)
  IC50: 2130 µM

## Ac-Arg-Val-His-Trp-Arg-Gly-Leu-Asp-Thr-Ser-Leu-Gly-Ser-Val-Gln (Ac-RVHWRGLDTSLGSVQ; not fully specified (C-terminus); printed as Ac-Arg-Val-His-Trp-Arg-Gly-Leu-Asp-Thr-Ser-Leu-Gly-Ser-Val-Gln) [Example 62]
HUT 78 cells, Mn2+ activated
  % Adhesion Inhibition 500 μM: 88%

## CC(C)C[C@H](NC(=O)[C@H](CO)NC(=O)[C@@H](NC(=O)[C@H](CC(=O)O)NC(=O)[C@H](CC(C)C)NC(=O)c1ccc2cc3ccccc3cc2c1)[C@@H](C)O)C(N)=O [Example 38, 2-Anc-Leu-Asp-Thr-Ser-Leu]
read-out: IC50
  IC50: 5.4 µM

## CC(C)C[C@H](NC(=O)[C@H](CO)NC(=O)[C@@H](NC(=O)[C@H](CC(=O)O)NC(=O)[C@H](CC(C)C)NC(=O)Cc1cccc2ccccc12)[C@@H](C)O)C(N)=O [Example 21, Npa-Leu-Asp-Thr-Ser-Leu]
read-out: IC50
  IC50: 548 µM
[2]
  inhibition at 500 µM: 39%

## CC(C)C[C@H](NC(=O)[C@H](CO)NC(=O)[C@@H](NC(=O)[C@H](CC(=O)O)NC(=O)[C@H](CC(C)C)NC(=O)[C@@H]1CCCN1C(=O)CCCc1ccc2ccc3cccc4ccc1c2c34)[C@@H](C)O)C(N)=O [Example 30, Pba-Pro-Leu-Asp-Thr-Ser-Leu] ({Butanoyl(4-pyren-1-yl)}-PLDTSL-NH2)
IC50 (μM)
  IC50: 47 µM

## C[C@@H](O)[C@H](NC(=O)[C@H](CC(=O)O)NC(=O)c1ccc2ccc3cccc4ccc1c2c34)C(N)=O [Example 52, Pca-Asp-Thr]
read-out: IC50
  IC50: 11 µM

## Ac-His-Trp-Arg-Gly-Leu-Asp-Thr-Ser-Leu-Gly-Ser-Val (Ac-HWRGLDTSLGSV; not fully specified (C-terminus); printed as Ac-His-Trp-Arg-Gly-Leu-Asp-Thr-Ser-Leu-Gly-Ser-Val) [Example 61]
HUT 78 cells, Mn2+ activated
  % Adhesion Inhibition 500 μM: 71%

## CC(C)C[C@H](NC(=O)[C@H](CO)NC(=O)[C@@H](NC(=O)[C@H](CC(=O)O)NC(=O)[C@H](CC(C)C)NC(=O)Cc1ccc(-c2ccccc2)cc1)[C@@H](C)O)C(N)=O [Example 20, Bipa-Leu-Asp-Thr-Ser-Leu]
read-out: IC50
  IC50: 485 µM
[2]
  inhibition at 500 µM: 54%

## NH2-Leu-Asp-Thr-Ser-Leu (H-LDTSL; not fully specified (C-terminus); printed as NH2-Leu-Asp-Thr-Ser-Leu) [Example 54]
HUT 78 cells, Mn2+ activated
  % Adhesion Inhibition 500 μM: 22%

## CC(C)C[C@H](NC(=O)[C@H](CO)NC(=O)[C@@H](NC(=O)[C@H](CC(=O)O)NC(=O)[C@H](CC(C)C)NC(=O)Cc1ccc2ccc3cccc4ccc1c2c34)[C@@H](C)O)C(N)=O [Example 29, Paa-Leu-Asp-Thr-Ser-Leu]
IC50 (μM)
  IC50: 0.5 µM

## CC(=O)N(C)[C@@H](CC(C)C)C(=O)N[C@@H](CC(=O)O)C(=O)N[C@H](C(=O)N[C@@H](CO)C(=O)N[C@@H](CC(C)C)C(N)=O)[C@@H](C)O [Example 49, Ac-MeLeu-Asp-Thr-Ser-Leu]
read-out: IC50
  IC50: 150 µM

## NH2-Arg-Val-His-Trp-Arg-Gly-Leu-Asp-Thr-Ser-Leu-Gly-Ser-Val-Gln (H-RVHWRGLDTSLGSVQ; not fully specified (C-terminus); printed as NH2-Arg-Val-His-Trp-Arg-Gly-Leu-Asp-Thr-Ser-Leu-Gly-Ser-Val-Gln) [Example 57]
HUT 78 cells, Mn2+ activated
  % Adhesion Inhibition 500 μM: 90%

## CC(C)C[C@H](NC(=O)[C@H](CO)NC(=O)[C@@H](NC(=O)[C@H](CC(=O)O)NC(=O)C1CCCC1)[C@@H](C)O)C(N)=O [Example 50, Cpc-Asp-Thr-Ser-Leu] (Cyclopentanecarbonyl-DTSL-NH2)
read-out: IC50
  IC50: 8.9 µM

## CC(C)C[C@H](NC(=O)[C@H](CO)NC(=O)[C@@H](NC(=O)[C@H](C)NC(=O)[C@H](CC(C)C)NC(=O)CCCc1ccc2ccc3cccc4ccc1c2c34)[C@@H](C)O)C(N)=O [Example 39, Pba-Leu-Ala-Thr-Ser-Leu] ({Butanoyl(4-pyren-1-yl)}-LATSL-NH2)
[3]
  inhibition at 250 µM: 100%
IC50 (μM)
  IC50: 28 µM

## CC(C)C[C@H](NC(=O)[C@H](CO)NC(=O)[C@@H](NC(=O)[C@H](CC(=O)O)NC(=O)[C@H](CC(C)C)NC(=O)CCCCCc1ccccc1)[C@@H](C)O)C(N)=O [Example 18, Phx-Leu-Asp-Thr-Ser-Leu]
read-out: IC50
  IC50: 818 µM
[2]
  inhibition at 500 µM: 32%

## CC(C)C[C@H](NC(=O)[C@H](CO)NC(=O)[C@@H](NC(=O)[C@H](CC(=O)O)NC(=O)[C@H](CC(C)C)NC(=O)CCCc1ccc2ccc3cccc4ccc1c2c34)[C@@H](C)O)C(N)=O [Example 23, Pba-Leu-Asp-Thr-Ser-Leu]
[3]
  inhibition at 50 µM: 88%
IC50 (μM)
  IC50: 2.8 µM

## CC(=O)N[C@H]1CSSC[C@@H](C(N)=O)NC(=O)CNC(=O)[C@H](CC(C)C)NC(=O)[C@H](CO)NC(=O)[C@H]([C@@H](C)O)NC(=O)[C@H](CC(=O)O)NC(=O)[C@H](CC(C)C)NC(=O)CNC1=O [Example 5] (Ac-CGLDTSLGC-NH2; disulfide 1-9)
HuT78, @200 μM compound, HUT 78 cells
  inhibition at 200 µM: 45%

## CC(=O)N[C@H]1CSSC[C@@H](C(N)=O)NC(=O)[C@H](CC(C)C)NC(=O)[C@H](CO)NC(=O)[C@H]([C@@H](C)O)NC(=O)[C@H](CC(=O)O)NC(=O)[C@H](CC(C)C)NC1=O [Example 4, Ac-Cys*-Leu-Asp-Thr-Ser-Leu-Cys*] (Ac-CLDTSLC-NH2; disulfide 1-7)
HuT78, @250 μM compound, HUT 78 cells, read-out: % Adhesion Inhibition
  inhibition at 250 µM: 51%

## CCCCCCCc1ccc(C(=O)N[C@@H](CC(C)C)C(=O)N[C@@H](CC(=O)O)C(=O)N[C@H](C(=O)N[C@@H](CO)C(=O)N[C@@H](CC(C)C)C(N)=O)[C@@H](C)O)cc1 [Example 22, Hbz-Leu-Asp-Thr-Ser-Leu]
read-out: IC50
  IC50: 401 µM
[2]
  inhibition at 500 µM: 51%

## CC(C)C[C@H](NC(=O)[C@H](CO)NC(=O)[C@@H](NC(=O)[C@H](CC(=O)O)NC(=O)[C@H](CC(C)C)NC(=O)c1cc(-c2ccccc2)cc(-c2ccccc2)c1)[C@@H](C)O)C(N)=O [Example 32, Dphb-Leu-Asp-Thr-Ser-Leu]
read-out: IC50
  IC50: 15 µM

## CC(=O)N(C)[C@@H](CC(C)C)C(=O)N[C@@H](CC(C)C)C(=O)N[C@@H](CC(=O)O)C(=O)N[C@H](C(=O)N[C@@H](CO)C(=O)N[C@@H](CC(C)C)C(N)=O)[C@@H](C)O [Example 17, Ac-MeLeu-Leu-Asp-Thr-Ser-Leu] (Ac-[NMeL]LDTSL-NH2)
[2]
  inhibition at 500 µM: 28%

## CC(C)C[C@H](NC(=O)[C@H](CO)NC(=O)[C@@H](NC(=O)[C@H](Cc1ccc(O)cc1)NC(=O)[C@H](CC(C)C)NC(=O)CCCc1ccc2ccc3cccc4ccc1c2c34)[C@@H](C)O)C(N)=O [Example 42, Pba-Leu-Tyr-Thr-Ser-Leu] ({Butanoyl(4-pyren-1-yl)}-LYTSL-NH2)
[1]
  inhibition at 500 µM: 100%
IC50 (μM)
  IC50: 30 µM
